The source made the active and inactive calls. The rule behind the calls is not given here.
Legend:
Aurora kinase B [1] = target: T1, Aurora kinase B (Homo sapiens, UniProt Q96GD4); assay: Inhibition of aurora-B (unknown origin)
Aurora kinase A = target: T2, Aurora kinase A (Homo sapiens, UniProt O14965); assay: Inhibition of aurora-A (unknown origin)
T2 sequence (O14965 whole entry): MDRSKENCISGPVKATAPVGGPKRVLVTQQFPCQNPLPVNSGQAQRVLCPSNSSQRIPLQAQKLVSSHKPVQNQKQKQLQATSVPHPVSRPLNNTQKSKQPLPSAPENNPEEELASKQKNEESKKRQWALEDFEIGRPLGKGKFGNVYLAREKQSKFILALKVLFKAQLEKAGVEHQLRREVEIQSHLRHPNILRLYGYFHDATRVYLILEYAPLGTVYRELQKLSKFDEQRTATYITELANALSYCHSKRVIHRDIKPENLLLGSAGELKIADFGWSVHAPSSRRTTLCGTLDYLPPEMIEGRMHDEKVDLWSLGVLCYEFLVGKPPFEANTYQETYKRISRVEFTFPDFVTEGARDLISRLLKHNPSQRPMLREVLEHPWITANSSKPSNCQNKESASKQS

MIA PaCa-2 [2] = assay: Antiproliferative activity against human MIAPaCa2 cells; type: functional, cell-based
[3] = target: Vascular endothelial growth factor receptor 3 (Homo sapiens, UniProt P35916); assay: Inhibition of Flt4 (unknown origin)
[4] = target: Serine/threonine-protein kinase Chk2 (Homo sapiens, UniProt O96017); assay: Inhibition of CHK2 (unknown origin)
[5] = target: Proto-oncogene tyrosine-protein kinase receptor Ret (Homo sapiens, UniProt P07949); assay: Inhibition of Ret (unknown origin)
LIM domain kinase 1 = LIM domain kinase 1 (Homo sapiens, UniProt P53667); assay: Inhibition of LIMK1 (unknown origin)
Mus musculus = assay: Inhibition of aurora-B in mouse bone marrow assessed as reduction of phosphorylation of histone H3 at 150 and 300 mg/kg, po after 2 hrs; type: functional
[6] = Oral bioavailability in mouse at 5 mg/kg; type: ADME, organism-based; conditions: in vivo
[7] = Half life in mouse at 5 mg/kg, po; type: ADME, organism-based; set-up: dose 5 mg/kg, route oral; conditions: in vivo
[8] = AUC in mouse at 5 mg/kg, po; type: ADME, organism-based; set-up: dose 5 mg/kg, route oral; conditions: plasma
[9] = Cmax in mouse at 5 mg/kg, po; type: ADME, organism-based; set-up: dose 5 mg/kg, route oral; conditions: in vivo
[10] = Volume of distribution at steady state in mouse at 5 mg/kg, iv; type: ADME, organism-based; set-up: dose 5 mg/kg, route intravenous; conditions: in vivo, read-out: Vdss
[11] = Clearance in mouse at 5 mg/kg, iv; type: ADME, organism-based; set-up: dose 5 mg/kg, route intravenous; conditions: in vivo
[12] = Cmax in mouse at 5 mg/kg, iv; type: ADME, organism-based; set-up: dose 5 mg/kg, route intravenous; conditions: in vivo
[13] = Half life in mouse at 5 mg/kg, iv; type: ADME, organism-based; set-up: dose 5 mg/kg, route intravenous; conditions: in vivo
[14] = AUC in mouse at 5 mg/kg, iv; type: ADME, organism-based; set-up: dose 5 mg/kg, route intravenous; conditions: plasma
[15] = target: Tyrosine-protein kinase Blk (Homo sapiens, UniProt P51451); assay: Inhibition of Blk (unknown origin)
[16] = target: Tyrosine-protein kinase ABL2 (Homo sapiens, UniProt P42684); assay: Inhibition of Arg (unknown origin)
[17] = target: Macrophage colony-stimulating factor 1 receptor (Homo sapiens, UniProt P07333); assay: Inhibition of Fms (unknown origin)
MIA PaCa-2 [18] = assay: Induction of endoreduplication human MIAPaCa2 cells assessed as accumulation of cells with >4N DNA content after 24 hrs; type: functional, cell-based
Aurora kinase B [19] = target: T1, Aurora kinase B; assay: Inhibition of aurora-B in human MIAPaCa2 cells assessed as reduction of phosphorylation of histone H3; type: cell-based, MIA PaCa-2
[20] = target: High affinity nerve growth factor receptor (Homo sapiens, UniProt P04629); assay: Inhibition of TrkA (unknown origin)
[21] = target: T3, Mitogen-activated protein kinase 13 (Homo sapiens, UniProt O15264); assay: Inhibition of SAPK4 (unknown origin)
T3 sequence (O15264 whole entry): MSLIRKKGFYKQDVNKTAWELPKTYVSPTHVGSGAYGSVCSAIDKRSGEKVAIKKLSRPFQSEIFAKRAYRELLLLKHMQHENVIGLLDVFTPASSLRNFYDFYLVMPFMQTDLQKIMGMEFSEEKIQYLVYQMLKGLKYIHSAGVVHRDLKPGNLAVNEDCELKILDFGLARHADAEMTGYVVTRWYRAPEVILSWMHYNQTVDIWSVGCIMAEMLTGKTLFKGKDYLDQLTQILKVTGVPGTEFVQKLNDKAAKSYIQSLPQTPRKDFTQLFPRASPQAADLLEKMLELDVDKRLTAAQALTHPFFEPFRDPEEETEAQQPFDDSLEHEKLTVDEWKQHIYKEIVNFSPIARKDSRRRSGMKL

[22] = target: Serine/threonine-protein kinase WNK3 (Homo sapiens, UniProt Q9BYP7); assay: Inhibition of WNK3 (unknown origin)
[23] = target: Serine/threonine-protein kinase SIK1 (Homo sapiens, UniProt P57059); assay: Inhibition of SIK (unknown origin)
[24] = target: Fibroblast growth factor receptor 1 (Homo sapiens, UniProt P11362); assay: Inhibition of FGFR1 (unknown origin)
Activated CDC42 kinase 1 = Activated CDC42 kinase 1 (Homo sapiens, UniProt Q07912); assay: Inhibition of ACK1 (unknown origin)
[25] = Solubility of the compound; type: physicochemical
[26] = target: Tyrosine-protein kinase HCK (Homo sapiens, UniProt P08631); assay: Inhibition of Hck (unknown origin)

T1 sequence (Q96GD4 whole entry): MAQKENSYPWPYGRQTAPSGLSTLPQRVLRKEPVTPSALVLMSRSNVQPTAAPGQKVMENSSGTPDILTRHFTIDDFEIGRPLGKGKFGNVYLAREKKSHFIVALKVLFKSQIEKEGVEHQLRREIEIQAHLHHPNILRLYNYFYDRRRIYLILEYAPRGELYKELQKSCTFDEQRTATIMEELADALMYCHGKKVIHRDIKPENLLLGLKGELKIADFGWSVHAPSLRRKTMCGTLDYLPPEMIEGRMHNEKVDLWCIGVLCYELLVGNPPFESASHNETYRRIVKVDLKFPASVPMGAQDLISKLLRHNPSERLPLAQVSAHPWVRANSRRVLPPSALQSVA
Serine/threonine-protein kinase Chk2, sequence (O96017 whole entry): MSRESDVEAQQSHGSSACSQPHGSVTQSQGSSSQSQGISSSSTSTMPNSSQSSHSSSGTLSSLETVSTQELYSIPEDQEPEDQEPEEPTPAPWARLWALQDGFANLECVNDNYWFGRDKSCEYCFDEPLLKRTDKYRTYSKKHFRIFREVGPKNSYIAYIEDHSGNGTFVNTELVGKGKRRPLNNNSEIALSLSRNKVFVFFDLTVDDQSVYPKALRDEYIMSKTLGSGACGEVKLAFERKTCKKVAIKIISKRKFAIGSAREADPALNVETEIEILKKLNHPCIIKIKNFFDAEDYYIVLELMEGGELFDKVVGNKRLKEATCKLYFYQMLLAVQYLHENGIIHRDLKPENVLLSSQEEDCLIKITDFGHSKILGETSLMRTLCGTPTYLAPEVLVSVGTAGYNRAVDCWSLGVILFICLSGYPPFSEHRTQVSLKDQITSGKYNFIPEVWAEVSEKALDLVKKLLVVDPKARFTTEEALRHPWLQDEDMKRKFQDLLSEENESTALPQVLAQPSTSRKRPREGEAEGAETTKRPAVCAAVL
LIM domain kinase 1, sequence (P53667 whole entry, the tested form may be a part): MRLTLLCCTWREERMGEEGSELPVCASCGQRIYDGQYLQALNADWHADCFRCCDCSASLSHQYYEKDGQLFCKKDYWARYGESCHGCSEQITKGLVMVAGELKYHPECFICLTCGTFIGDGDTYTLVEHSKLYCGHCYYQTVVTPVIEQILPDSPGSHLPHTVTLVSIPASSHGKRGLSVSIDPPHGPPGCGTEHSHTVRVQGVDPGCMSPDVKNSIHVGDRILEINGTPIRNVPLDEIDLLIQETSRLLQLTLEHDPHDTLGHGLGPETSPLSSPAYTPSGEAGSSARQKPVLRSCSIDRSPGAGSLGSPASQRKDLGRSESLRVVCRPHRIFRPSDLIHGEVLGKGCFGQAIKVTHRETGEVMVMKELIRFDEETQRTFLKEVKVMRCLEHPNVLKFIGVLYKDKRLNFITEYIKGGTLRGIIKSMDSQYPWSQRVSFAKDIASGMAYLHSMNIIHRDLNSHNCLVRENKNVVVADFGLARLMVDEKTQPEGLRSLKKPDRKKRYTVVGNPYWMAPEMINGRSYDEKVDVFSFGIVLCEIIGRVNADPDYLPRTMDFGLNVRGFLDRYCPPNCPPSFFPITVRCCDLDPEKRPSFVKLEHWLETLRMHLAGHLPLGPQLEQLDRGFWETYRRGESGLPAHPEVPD
Vascular endothelial growth factor receptor 3, sequence (P35916 whole entry): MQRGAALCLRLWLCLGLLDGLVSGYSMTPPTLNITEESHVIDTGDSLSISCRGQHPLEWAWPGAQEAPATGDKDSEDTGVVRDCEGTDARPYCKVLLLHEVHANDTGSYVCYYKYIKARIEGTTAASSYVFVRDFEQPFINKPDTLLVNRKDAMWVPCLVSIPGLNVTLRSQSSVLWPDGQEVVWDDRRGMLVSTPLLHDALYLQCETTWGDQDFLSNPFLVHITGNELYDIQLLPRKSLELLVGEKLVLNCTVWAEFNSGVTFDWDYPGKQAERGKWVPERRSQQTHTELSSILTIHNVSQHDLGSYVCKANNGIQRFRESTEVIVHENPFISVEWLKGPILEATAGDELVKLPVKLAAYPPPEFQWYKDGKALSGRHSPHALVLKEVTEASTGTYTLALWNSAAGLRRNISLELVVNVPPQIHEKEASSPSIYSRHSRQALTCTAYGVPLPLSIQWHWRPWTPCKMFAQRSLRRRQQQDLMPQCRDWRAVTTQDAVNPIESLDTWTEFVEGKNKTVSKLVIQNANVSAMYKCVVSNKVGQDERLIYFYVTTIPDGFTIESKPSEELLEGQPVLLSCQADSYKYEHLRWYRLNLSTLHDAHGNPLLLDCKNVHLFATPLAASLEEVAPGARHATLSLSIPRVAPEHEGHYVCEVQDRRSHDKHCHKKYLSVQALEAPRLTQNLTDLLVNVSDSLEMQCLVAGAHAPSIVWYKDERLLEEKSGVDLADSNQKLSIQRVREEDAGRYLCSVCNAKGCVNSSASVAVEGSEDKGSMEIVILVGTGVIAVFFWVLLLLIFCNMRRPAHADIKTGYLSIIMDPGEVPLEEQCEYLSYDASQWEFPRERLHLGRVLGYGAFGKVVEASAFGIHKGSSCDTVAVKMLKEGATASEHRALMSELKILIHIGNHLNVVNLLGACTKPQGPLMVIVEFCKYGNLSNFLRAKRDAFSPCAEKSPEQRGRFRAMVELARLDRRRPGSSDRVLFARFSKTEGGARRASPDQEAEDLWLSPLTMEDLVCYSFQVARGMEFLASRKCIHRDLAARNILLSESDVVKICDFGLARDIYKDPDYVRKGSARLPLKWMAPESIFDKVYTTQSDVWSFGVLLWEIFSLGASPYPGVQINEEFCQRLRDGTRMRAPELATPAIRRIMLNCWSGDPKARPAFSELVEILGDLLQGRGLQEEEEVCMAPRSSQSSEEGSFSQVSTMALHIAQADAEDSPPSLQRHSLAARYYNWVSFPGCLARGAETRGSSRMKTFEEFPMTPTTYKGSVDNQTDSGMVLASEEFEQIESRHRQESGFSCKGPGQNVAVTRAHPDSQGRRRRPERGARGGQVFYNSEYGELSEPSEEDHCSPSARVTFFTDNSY
Proto-oncogene tyrosine-protein kinase receptor Ret, sequence (P07949 whole entry, the tested form may be a part): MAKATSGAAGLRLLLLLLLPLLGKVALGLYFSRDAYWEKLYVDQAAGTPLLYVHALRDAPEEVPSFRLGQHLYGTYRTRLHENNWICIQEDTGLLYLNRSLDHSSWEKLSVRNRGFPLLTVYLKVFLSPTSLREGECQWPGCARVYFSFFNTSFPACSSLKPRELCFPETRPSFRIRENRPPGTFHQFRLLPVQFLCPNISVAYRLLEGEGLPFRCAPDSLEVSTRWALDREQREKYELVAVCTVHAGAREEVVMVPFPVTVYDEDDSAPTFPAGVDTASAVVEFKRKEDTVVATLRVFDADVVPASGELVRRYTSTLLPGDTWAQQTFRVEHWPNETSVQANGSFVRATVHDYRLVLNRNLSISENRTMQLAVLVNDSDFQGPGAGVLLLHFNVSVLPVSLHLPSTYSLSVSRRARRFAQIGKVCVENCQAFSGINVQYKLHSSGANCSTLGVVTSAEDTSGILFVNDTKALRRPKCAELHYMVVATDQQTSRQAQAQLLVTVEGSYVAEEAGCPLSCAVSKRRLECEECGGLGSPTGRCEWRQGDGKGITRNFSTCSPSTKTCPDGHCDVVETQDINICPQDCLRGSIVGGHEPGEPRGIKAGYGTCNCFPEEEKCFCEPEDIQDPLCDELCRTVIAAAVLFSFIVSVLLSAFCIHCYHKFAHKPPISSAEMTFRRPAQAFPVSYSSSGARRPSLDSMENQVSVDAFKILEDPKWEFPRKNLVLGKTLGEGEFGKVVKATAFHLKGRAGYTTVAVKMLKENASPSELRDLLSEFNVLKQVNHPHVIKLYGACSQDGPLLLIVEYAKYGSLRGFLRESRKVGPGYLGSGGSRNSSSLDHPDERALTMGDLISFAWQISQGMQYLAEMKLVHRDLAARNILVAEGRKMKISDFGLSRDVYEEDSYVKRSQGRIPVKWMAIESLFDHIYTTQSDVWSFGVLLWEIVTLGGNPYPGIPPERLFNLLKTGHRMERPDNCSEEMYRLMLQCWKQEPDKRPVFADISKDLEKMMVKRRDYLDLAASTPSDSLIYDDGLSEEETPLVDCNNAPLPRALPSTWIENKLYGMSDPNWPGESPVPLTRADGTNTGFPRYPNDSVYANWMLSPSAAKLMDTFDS
High affinity nerve growth factor receptor, sequence (P04629 whole entry): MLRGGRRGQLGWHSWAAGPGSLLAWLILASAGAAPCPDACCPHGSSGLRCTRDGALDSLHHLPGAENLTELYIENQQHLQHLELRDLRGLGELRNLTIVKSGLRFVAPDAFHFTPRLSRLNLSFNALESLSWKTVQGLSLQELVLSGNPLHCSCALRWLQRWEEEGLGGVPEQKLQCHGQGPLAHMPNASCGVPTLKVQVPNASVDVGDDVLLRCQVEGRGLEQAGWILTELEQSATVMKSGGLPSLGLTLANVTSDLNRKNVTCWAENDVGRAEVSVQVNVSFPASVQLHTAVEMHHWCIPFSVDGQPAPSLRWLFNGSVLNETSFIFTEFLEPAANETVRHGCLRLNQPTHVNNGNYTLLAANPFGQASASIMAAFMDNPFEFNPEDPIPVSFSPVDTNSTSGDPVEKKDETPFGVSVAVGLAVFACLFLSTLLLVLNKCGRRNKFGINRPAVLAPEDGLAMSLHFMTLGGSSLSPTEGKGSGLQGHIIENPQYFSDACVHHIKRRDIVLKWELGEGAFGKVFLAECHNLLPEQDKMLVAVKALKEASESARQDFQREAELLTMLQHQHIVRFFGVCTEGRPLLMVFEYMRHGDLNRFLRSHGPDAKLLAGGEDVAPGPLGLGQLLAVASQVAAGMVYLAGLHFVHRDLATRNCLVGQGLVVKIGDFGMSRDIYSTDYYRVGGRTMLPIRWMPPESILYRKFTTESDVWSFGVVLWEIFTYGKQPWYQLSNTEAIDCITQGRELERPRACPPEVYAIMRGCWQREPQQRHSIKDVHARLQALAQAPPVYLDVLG

| Compound | IC50 (Aurora kinase B [1]) | IC50 (Aurora kinase A) | IC50 (MIA PaCa-2 [2]) | other results |
| --- | --- | --- | --- | --- |
| O=C(Nc1ccc(Nc2ccnc3[nH]c(=O)c4ccccc4c23)cc1)c1ccc(F)cc1 | 1 nM | 4 nM | 719 nM |  |
| O=C(Nc1ccc(Nc2ccnc3[nH]c(=O)c4ccccc4c23)cc1)c1ccc(F)cc1F | 1 nM | 2 nM | 374 nM |  |
| O=C(Nc1ccc(Nc2ccnc3[nH]c(=O)c4ccccc4c23)cc1)c1ccccc1C(F)(F)F | 1 nM | 4 nM | 405 nM |  |
| O=c1[nH]c2ncccc2c2ccccc12 |  | 5540 nM |  |  |
| O=C(Nc1ccc(Nc2ccnc3[nH]c(=O)c4ccccc4c23)cc1)c1cc(F)cc(C(F)(F)F)c1 |  | 9 nM | 211 nM |  |
| O=C(Nc1ccc(Nc2ccnc3[nH]c(=O)c4ccccc4c23)cc1)c1ccc(F)cc1C(F)(F)F | 0.4 nM | 0.3 nM | 170 nM | IC50 [3]: 867 nM; IC50 [4]: 161 nM; IC50 [5]: 706 nM; IC50 (LIM domain kinase 1): 18 nM; inhibition in vivo at 300 mg/kg (Mus musculus): 40%; bioavailability [6]: 41%; half-life [7]: 2.74 h; AUC [8]: 1440 ng·h/mL; Cmax [9]: 321 ng/mL; Vd [10]: 1.48 L/kg; clearance [11]: 19.7 mL/min/kg; Cmax [12]: 3930 ng/mL; half-life [13]: 1.36 h; AUC [14]: 4190 ng·h/mL; IC50 [15]: 959 nM; IC50 [16]: 863 nM; IC50 [17]: 575 nM; Activity (MIA PaCa-2 [18]): Active; IC50 (Aurora kinase B [19]): 52 nM |
| O=C(Nc1ccc(Nc2ccnc3[nH]c(=O)c4ccccc4c23)cc1)c1cccc(F)c1 | 1 nM | 7 nM | 919 nM |  |
| O=C(Nc1ccc(Nc2ccnc3[nH]c(=O)c4ccccc4c23)cc1)c1cccc(C(F)(F)F)c1F | 1 nM | 7 nM | 253 nM |  |
| O=C(Nc1ccc(Nc2ccnc3[nH]c(=O)c4ccccc4c23)cc1)c1ccccc1 | 1 nM | 4 nM | 329 nM | IC50 [3]: 417 nM; IC50 [20]: 819 nM; IC50 [21]: 411 nM; IC50 [22]: 401 nM; IC50 [23]: 211 nM; IC50 [24]: 175 nM; IC50 [4]: 41 nM; IC50 (Activated CDC42 kinase 1): 149 nM; IC50 [5]: 15 nM; IC50 (LIM domain kinase 1): 36 nM; IC50 (Aurora kinase B [19]): 208 nM; solubility [25]: < 1 µM; IC50 [26]: 958 nM |
| O=c1[nH]c2nccc(Cl)c2c2ccccc12 | 1440 nM | 3010 nM |  |  |
| Cc1ccc(C(=O)Nc2ccc(Nc3ccnc4[nH]c(=O)c5ccccc5c34)cc2)cc1 | 2 nM | 3 nM | 2390 nM |  |
| COc1cccc(F)c1C(=O)Nc1ccc(Nc2ccnc3[nH]c(=O)c4ccccc4c23)cc1 | 1 nM | 3 nM | 1190 nM |  |
| O=C(Nc1ccc(Nc2ccnc3[nH]c(=O)c4ccccc4c23)cc1)c1cc(F)cc(F)c1 | 0.7 nM | 7 nM | 823 nM |  |
| CNc1ccc(Nc2ccnc3[nH]c(=O)c4ccccc4c23)cc1 |  | 471 nM |  |  |
| O=C(Nc1ccc(Nc2ccnc3[nH]c(=O)c4ccccc4c23)cc1)c1ccc(C(F)(F)F)cc1 | 6 nM | 27 nM | 2710 nM |  |
| Nc1ccnc2[nH]c(=O)c3ccccc3c12 |  | 3010 nM |  |  |
| O=C(Nc1ccc(Nc2ccnc3[nH]c(=O)c4ccccc4c23)cc1)c1ccccc1F | 2 nM | 9 nM | 6250 nM |  |
| O=C(Nc1ncc(Nc2ccnc3[nH]c(=O)c4ccccc4c23)cn1)c1ccccc1 | 21 nM | 88 nM |  |  |
| O=C(Nc1ccc(Nc2ccnc3[nH]c(=O)c4ccccc4c23)cc1)c1ccc(F)c(F)c1 | 0.8 nM | 7 nM | 409 nM |  |
| O=C(Nc1ccc(Nc2ccnc3[nH]c(=O)c4ccccc4c23)cc1)c1c(F)cccc1F | 0.6 nM | 5 nM | 293 nM |  |
| O=C(Nc1ccc(Nc2ccnc3[nH]c(=O)c4ccccc4c23)cc1)c1cccc(F)c1F | 0.5 nM | 2 nM | 209 nM |  |
| COc1ccccc1C(=O)Nc1ccc(Nc2ccnc3[nH]c(=O)c4ccccc4c23)cc1 | 2 nM | 7 nM | 2220 nM |  |
| O=c1[nH]c2nccc(Nc3ccccc3)c2c2ccccc12 |  | 1030 nM |  |  |
| O=C(Nc1ccc(Nc2ccnc3[nH]c(=O)c4ccccc4c23)nc1)c1ccccc1 | 79 nM | 615 nM |  |  |
| O=C(Nc1ccc(Nc2ccnc3[nH]c(=O)c4ccccc4c23)cc1)c1ccc(C(F)(F)F)cc1F |  | 9 nM | 4990 nM |  |
| Nc1ccc(Nc2ccnc3[nH]c(=O)c4ccccc4c23)cc1 | 174 nM | 1150 nM |  |  |
| O=C(Nc1ccc(Nc2ccnc3[nH]c(=O)c4ccccc4c23)cn1)c1ccccc1 | 13 nM | 70 nM |  |  |

Source: ChEMBL document CHEMBL2380198, “SAR and evaluation of novel 5H-benzo[c][1,8]naphthyridin-6-one analogs as Aurora kinase inhibitors” (Bioorg Med Chem Lett, 2013)
